Laboratory results taken from patent publication US11559538B2, “Substituted 1,2-oxaborolan-2-ols as PDE4 inhibitors” (Pfizer Inc., priority 2018, dated 2023).

Tests used:
[1] = target: PDE4B (aa 152-484, Uniprot ID Q07343) (Homo sapiens (Human), UniProt Q07343); test: PDE4 SPA assay (scintillation proximity assay); type: biochemical; conditions: read-out: PDE4B2 IC50
In short: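 PDE4B (aa 152-484, ~81.6 pM) preincubated ~10 min with compound, then 1 μM ³H/unlabeled cAMP added in Tris pH 7.5, 1.3 mM MgCl2, 0.004% Brij 35, ~2% DMSO; 30 min at RT. Product captured on SPA beads and counted; IC50 by four-parameter logistic fit.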

IL-4 = test: Cytokine assay: IL-4 release from PHA-L stimulated human PBMCs; type: cell-based; conditions: Homo sapiens, PBMC, read-out: IL4 IC50
In short: (§1)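 PBMC thaw, ~250k cells/well; cpd pre-incubation ~10 min RT; PHA-L 3.5 μg/mL final; 48 h, 37° C, 5% CO2; supernatant HTRF; IC50 by 4-parameter logistic.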

IL-13 = test: Cytokine assay: IL-13 release from PHA-L stimulated human PBMCs; type: cell-based; conditions: Homo sapiens, PBMC, read-out: IL13 IC50
In short: as §1

IFNγ = test: Cytokine assay: IFNγ release from PHA-L stimulated human PBMCs; type: cell-based; conditions: Homo sapiens, PBMC
In short: as §1

Sequence of PDE4B (aa 152-484, Uniprot ID Q07343) (Q07343 324-656): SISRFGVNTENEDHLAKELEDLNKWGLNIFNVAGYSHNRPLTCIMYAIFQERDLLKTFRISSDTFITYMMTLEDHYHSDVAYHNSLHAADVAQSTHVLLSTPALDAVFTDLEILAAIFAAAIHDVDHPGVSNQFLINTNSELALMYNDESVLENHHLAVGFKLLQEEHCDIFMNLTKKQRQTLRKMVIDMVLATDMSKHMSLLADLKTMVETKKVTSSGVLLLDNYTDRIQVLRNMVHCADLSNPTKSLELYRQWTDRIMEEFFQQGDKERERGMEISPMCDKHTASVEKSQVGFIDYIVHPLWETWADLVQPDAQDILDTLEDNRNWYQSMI

SMILES	IC50 [1] [nM]	IC50 (IL-4) [nM]	IC50 (IL-13) [nM]	IC50 (IFNγ) [nM]
COc1ccc(-c2cncc(C3COB(O)C3)c2)cc1OC1CCCC1 (stereo not drawn) [Example 149, 4-(5-(3-(cyclopentyloxy)-4-methoxyphenyl)pyridin-3-yl)-1,2-oxaborolan-2-ol]	0.49	20.2	793	0.87
COc1ccc(-c2cncc(C3COB(O)C3)c2)c(C#N)c1OC (stereo not drawn) [Example 153, 6-(5-(2-hydroxy-1,2-oxaborolan-4-yl)pyridin-3-yl)-2,3-dimethoxybenzonitrile]	3.24	50.7	860	2.57
CCCOc1nc(-c2cccc(C3=CB(O)OC3)c2)ccc1OC [Example 155, 4-(3-(5-methoxy-6-propoxypyridin-2-yl)phenyl)-1,2-oxaborol-2(5H)-ol]	1.81	293	2600	5.64
COc1cc(-c2ccc(OC)c(OC)c2)cc(C2COB(O)C2)c1 (stereo not drawn) [Example 157, 4-(3′,4′,5-trimethoxy-[1,1′-biphenyl]-3-yl)-1,2-oxaborolan-2-ol]	2.96	190	906	5.62
COc1ccc(-c2nc(C3COB(O)C3)cs2)cc1OC (stereo not drawn) [Example 159, 4-(2-(3,4-dimethoxyphenyl)thiazol-4-yl)-1,2-oxaborolan-2-ol]	15.1	468	931	25.1
COc1cc(-c2cccc(C3COB(O)C3)c2)cnc1OC (stereo not drawn) [Example 161, 4-(3-(5,6-dimethoxypyridin-3-yl)phenyl)-1,2-oxaborolan-2-ol]	11.3	419	960	38.6
CCOc1c(OC)cc(F)c(-c2cncc(C3COB(O)C3)c2)c1F (stereo not drawn) [Example 163, 4-(5-(3-ethoxy-2,6-difluoro-4-methoxyphenyl)pyridin-3-yl)-1,2-oxaborolan-2-ol]	3.71	31.1	2510	14.2
COc1ccc(-c2cccc(C3COB(O)C3)c2)cc1OCC1CC1 (stereo not drawn) [Example 165, 4-(3′-(cyclopropylmethoxy)-4′-methoxy-[1,1′-biphenyl]-3-yl)-1,2-oxaborolan-2-ol]	2.11	128	990	3.25
COc1ccc(-c2cncc(C3COB(O)C3)c2)cc1OC1CCSCC1 (stereo not drawn) [Example 169, 4-(5-(4-methoxy-3-((tetrahydro-2H-thiopyran-4-yl)oxy)phenyl)pyridin-3-yl)-1,2-oxaborolan-2-ol]	2.85	33	2020	5.84
CCOc1cc(-c2cc(C3COB(O)C3)cnc2CC)ccc1OC (stereo not drawn) [Example 171, 4-(5-(3-ethoxy-4-methoxyphenyl)-6-ethylpyridin-3-yl)-1,2-oxaborolan-2-ol]	1.73	2.43	1350	3.22
CCOc1cc(-c2cccc(C3COB(O)C3)c2)ccc1SC (stereo not drawn) [Example 172, 4-(3′-ethoxy-4′-(methylthio)-[1,1′-biphenyl]-3-yl)-1,2-oxaborolan-2-ol]	1.76	269	1110	27.5
COc1cnc(-c2cccc(C3COB(O)C3)c2)cc1OC (stereo not drawn) [Example 174, 4-(3-(4,5-dimethoxypyridin-2-yl)phenyl)-1,2-oxaborolan-2-ol]	8.57	279	1140	14.4
COc1cc(-c2ccc(OC)c(OC3CCCC3)c2)nc(C2COB(O)C2)n1 (stereo not drawn) [Example 175, 4-(4-(3-(cyclopentyloxy)-4-methoxyphenyl)-6-methoxypyrimidin-2-yl)-1,2-oxaborolan-2-ol]	5.03	14.3	2310	4.35
CCCOc1cc(-c2cncc(C3COB(O)C3)c2)ncc1OC (stereo not drawn) [Example 178]	2.02	1.81	1280	0.91
COc1ccc(-c2cccc(C3COB(O)C3)c2)cc1OC1CCC1 (stereo not drawn) [Example 184, 4-(3′-cyclobutoxy-4′-methoxy-[1,1′-biphenyl]-3-yl)-1,2-oxaborolan-2-ol]	0.8	79.2	1400	4.48
CCOc1ccc(-c2cncc(C3COB(O)C3)c2)cc1OC (stereo not drawn) [Example 187, 4-(5-(4-ethoxy-3-methoxyphenyl)pyridin-3-yl)-1,2-oxaborolan-2-ol]	4.28	41.1	1420	8.84
CCCOc1cc(-c2cc(CO)nc(C3COB(O)C3)n2)ccc1OC (stereo not drawn) [Example 198, 4-(4-(hydroxymethyl)-6-(4-methoxy-3-propoxyphenyl)pyrimidin-2-yl)-1,2-oxaborolan-2-ol]	14.3	14.2	1580	4.85
CCCOc1cc(-n2ccc(C3COB(O)C3)n2)ccc1OC (stereo not drawn) [Example 200, 4-(1-(4-methoxy-3-propoxyphenyl)-1H-pyrazol-3-yl)-1,2-oxaborolan-2-ol]	12.9	128	1600	14.1
COc1cc(-c2cncc(C3COB(O)C3)c2)ccc1SC (stereo not drawn) [Example 201, 4-(5-(3-methoxy-4-(methylthio)phenyl)pyridin-3-yl)-1,2-oxaborolan-2-ol]	2.13	105	1660	9.51
CCCOc1cc(-c2cc(C3COB(O)C3)cc(CO)n2)ccc1OC (stereo not drawn) [Example 202, 4-(2-(hydroxymethyl)-6-(4-methoxy-3-propoxyphenyl)pyridin-4-yl)-1,2-oxaborolan-2-ol]	4.29	5.2	1670	8.51
COc1cc(-c2cccc(C3COB(O)C3)c2)ccc1SC (stereo not drawn) [Example 206, 4-(3′-methoxy-4′-(methylthio)-[1,1′-biphenyl]-3-yl)-1,2-oxaborolan-2-ol]	2.65	113	1790	27.8

Other lines, results leading:

IC50 [1] [nM]	IC50 (IL-4) [nM]	IC50 (IL-13) [nM]	IC50 (IFNγ) [nM]	SMILES
5.98	39.1	813	3.48	CCOc1c(OC)ccc(-c2cccc(C3COB(O)C3)n2)c1C#N (stereo not drawn) [Example 151, 2-ethoxy-6-(6-(2-hydroxy-1,2-oxaborolan-4-yl)pyridin-2-yl)-3-methoxybenzonitrile]
1.38	161	828	6.02	COc1ccc(-c2cccc(C3COB(O)C3)c2)nc1OC (stereo not drawn) [Example 152, 4-(3-(5,6-dimethoxypyridin-2-yl)phenyl)-1,2-oxaborolan-2-ol]
0.82	127	901	1.56	CCCOc1nc(-c2cccc(C3COB(O)C3)c2)ccc1OC (stereo not drawn) [Example 156, 4-(3-(5-methoxy-6-propoxypyridin-2-yl)phenyl)-1,2-oxaborolan-2-ol]
12	59.1	929	10.2	CCCOc1cc(-c2cc(C)cc(C3COB(O)C3)n2)ccc1OC (stereo not drawn) [Example 158, 4-(6-(4-methoxy-3-propoxyphenyl)-4-methylpyridin-2-yl)-1,2-oxaborolan-2-ol]
14.5	56.3	975	8.29	COc1ccc(-c2cccc(C3COB(O)C3)n2)c(F)c1OC (stereo not drawn) [Example 162, 4-(6-(2-fluoro-3,4-dimethoxyphenyl)pyridin-2-yl)-1,2-oxaborolan-2-ol]
0.97	49.2	1010	5.46	CCOc1c(OC)ccc(-c2cccc(C3COB(O)C3)c2)c1F (stereo not drawn) [Example 166, 4-(3′-ethoxy-2′-fluoro-4′-methoxy-[1,1′-biphenyl]-3-yl)-1,2-oxaborolan-2-ol]
1.98	1.37	2790	1.13	CCCOc1c(OC)ccc(-c2cncc(C3COB(O)C3)c2)c1OC (stereo not drawn) [Example 167, 4-(5-(2,4-dimethoxy-3-propoxphenyl)pyridin-3-yl)-1,2-oxaborolan-2-ol]
5.14	245	1330	19.6	CCOc1ccc(-c2cccc(C3COB(O)C3)c2)cc1OC (stereo not drawn) [Example 182, 4-(4′-ethoxy-3′-methoxy-[1,1′-biphenyl]-3-yl)-1,2-oxaborolan-2-ol]
3.38	5.75	2980	1.3	CCOc1cc(-c2nc(OC)cc(C3COB(O)C3)n2)ccc1OC (stereo not drawn) [Example 185, 4-(2-(3-ethoxy-4-methoxyphenyl)-6-methoxypyrimidin-4-yl)-1,2-oxaborolan-2-ol]
3.84	176	1500	4.42	CCOc1c(OC)ccc(-c2cccc(C3COB(O)C3)c2)c1C#N (stereo not drawn) [Example 191, 3-ethoxy-3′-(2-hydroxy-1,2-oxaborolan-4-yl)-4-methoxy-[1,1′-biphenyl]-2-carbonitrile]
10.4	90.4	1590	4.55	CCOc1c(OC)ccc(-c2cccc(C3COB(O)C3)n2)c1F (stereo not drawn) [Example 199, 4-(6-(3-ethoxy-2-fluoro-4-methoxyphenyl)pyridin-2-yl)-1,2-oxaborolan-2-ol]
15	176	2180	114	CCOc1cc(-c2cccc(C3COB(O)C3)n2)ccc1SC (stereo not drawn) [Example 203, 4-(6-(3-ethoxy-4-(methylthio)phenyl)pyridin-2-yl)-1,2-oxaborolan-2-ol]
